Data taken from patent publication US8859021B2, “Skin appearance through gene manipulation” (Sytheon, priority 2007, dated 2014).

Tested on: EpiDerm tissues
Conditions: retinol 10 μg/ml, Sytenol A 5 μg/ml, 2 days, vs 0.1% DMSO control

For `C=C[C@@](C)(/C=C/c1ccc(O)cc1)CCC=C(C)C` [Sytenol A, bakuchiol], the “Fold Change, Insulin-like growth factor-binding protein 6 precursor (IGBP-6)” value was “+4.03 fold”, the “Fold Change, JUP Catenin gamma (Junction plakoglobin) (Table 8)” value was “+3.83 fold” and the “Fold Change, JUP Catenin gamma (Table 9)” value was “+3.83 fold”. For the same compound, the “Fold Change, KIF1C Kinesin-like protein KIF1C” value was “+2.03 fold”, the “Fold Change, KIF2A Kinesin-like protein KIF2A” value was “No effect” and the “Fold Change, KIF4A Chromosome-associated kinesin KIF4A” value was “+2.15 fold”. For the same compound, the “Fold Change, KIF13A Kinsein-like protein KIF13A” value was “No effect”, the “Fold Change, KIF13B Kinsein-like protein KIF13B” value was “+3.53 fold” and the “Fold Change, KIF17 Kinesin-like protein KIF17” value was “+2.44 fold”. The “Fold Change, KIF26A Kinesin family member 26A” value was “No effect”, the “Fold Change, KIFC2 Kinesin-like protein KIFC2” value was “No effect” and the “Fold Change, KRT2 Keratin-2; Cytokeratin-2e (CK 2e)” value was −3.53 fold. For the same compound, the “Fold Change, KRT5 Keratin-5, Cytokeratin-5 (CK-5)” value was “+2.81 fold”, the “Fold Change, KRT7 Keratin-7; Cytokeratin-7 (CK-7)” value was “+13.75 fold” and the “Fold Change, KRT13 Keratin-13; Cytokeratin-13 (CK-13)” value was “+16.34 fold”. The “Fold Change, KRT15 Keratin-15; Cytokeratin-15 (CK-15)” value was “+11.29 fold”, the “Fold Change, KRT19 Keratin-19; Cytokeratin-19 (CK-19)” value was “+20.67 fold” and the “Fold Change, LAMA3 Laminin subunit alpha-3 precursor (Epiligrin 170 kDa subunit)” value was “+11.03 fold”. For the same compound, the “Fold Change, LAMC2 Laminin subunit gamma-2 precursor (Laminin B2t chain)” value was “+7.84 fold”, the “Fold Change, LRAT Lecithin retinol acyltransferase” value was “+82.23 fold” and the “Fold Change, LRRC49 Tubulin polyglutamylase complex subunit 4 (PGs4)” value was −3.47 fold. The “Fold Change, MC1R, TUBB3 Tubulin beta-3-chain (Tubulin beta-III)” value was “+3.23 fold”, the “Fold Change, MMP9 Matrix metalloprotease-9-precursor” value was “+12.61 fold” and the “Fold Change, MMP15 Matrix metalloprotease-15 precursor” value was “+4.19 fold”. For the same compound, the “Fold Change, MMP21 Matrix metalloprotease-21 precursor” value was −7.89 fold, the “Fold Change, MMP23A, MMP23B Matrix metalloprotease-23” value was −8.83 fold and the “Fold Change, MMP26 Matrix metalloprotease-26-precursor (MMP-26)” value was “+2.91 fold”. For the same compound, the “Fold Change, MMP28 Matrix metalloprotease-28-precursor” value was “+15.91 fold”, the “Fold Change, MYH14 Myosin-14” value was “+5.72 fold” and the “Fold Change, MYL2 Myosin regulatory light chain 2” value was −2.50 fold. For the same compound, the “Fold Change, MYO1F Myosin-lf (Myosin-le)” value was “+3.44 fold”, the “Fold Change, MYO6 Myosin-VI” value was “+2.38 fold” and the “Fold Change, Mast/stem cell growth factor receptor precursor (SCFR) (Proto-oncogene tyrosine-protein kinase kit (c-kit))” value was −2.31 fold. The “Fold Change, NDST4 N-heparan sulfate sulfotransferase 4” value was “+4.43 fold”, the “Fold Change, NEIL2 DNA glycosylase/AP lyase Neil2” value was “+4.17 fold” and the “Fold Change, NF-kappa-B-activating protein” value was −2.32 fold. The “Fold Change, NGRN, TTLL13 Tubulin tyrosine ligase-like family, member 13” value was “+12.65 fold”, the “Fold Change, NT5C1B, RDH14 Retinol dehydrogenase 14 (Alcohol dehydrogenase PAN20)” value was −3.57 fold and the “Fold Change, Nuclear factor Kappa B p105 unit (NF-kappa-B) (DNA-binding factor KBF 1)” value was −2.01 fold. The “Fold Change, PARP2 Poly (ADP-ribose) polymerase 2” value was “+1.46 fold”, the “Fold Change, PARP9 Poly (ADP-ribose) polymerase 9” value was “+7.74 fold” and the “Fold Change, PARP12 Poly (ADP-ribose) polymerase 12” value was “+6.05 fold”. For the same compound, the “Fold Change, PARP15 Poly (ADP-ribose) polymerase 15” value was “No effect”, the “Fold Change, PCDH11X Procadherin-11” value was “+10.15 fold” and the “Fold Change, PCDH18 Procadherin-18-precursor” value was “No effect”. The “Fold Change, PCDH19 Procadherin-19-precursor” value was “No effect”, the “Fold Change, PCDHB1 Procadherin-beta-1-precursor” value was “+2.00 fold” and the “Fold Change, PCDHB2 Procadherin-beta-2-precursor” value was “+18.74 fold”. For the same compound, the “Fold Change, PCDHB3 Procadherin-beta-3-precursor” value was “No effect”, the “Fold Change, PCDHB4 Procadherin-beta-4-precursor” value was −7.81 fold and the “Fold Change, PFN4 Profilin-4 (Profilin IV)” value was “No effect”. The “Fold Change, PI3 Elastase-specific inhibitor” value was “+2.72 fold”, the “Fold Change, Protein Kinase B (RAC-alpha serine/threonine-protein kinase) (RAC-PK-alpha)” value was −3.47 fold and the “Fold Change, RARRES1 Retinoic acid receptor responder protein 1” value was “+12.87 fold”. For the same compound, the “Fold Change, RBP1 Cellular Retinol-binding protein-I” value was “+4.17 fold”, the “Fold Change, RBP2 Cellular Retinol-binding protein-II” value was “+4.12 fold” and the “Fold Change, RBP7 Cellular retinoic acid-binding protein 4” value was “+3.09 fold”. For the same compound, the “Fold Change, RETSAT All-trans-retinol 13,14-reductase precursor” value was −2.84 fold, the “Fold Change, SELE E-selection precursor (Endothelial leukocyte adhesion molecule 1) (ELAM-1)” value was “No effect” and the “Fold Change, SERPINB1 Leukocyte elastase inhibitor” value was “+6.09 fold”. The “Fold Change, SIR2-like protein1/NAD-dependent deacetylase sirtuin-1 (hSIRT1)” value was −1.54 fold, the “Fold Change, SIR2-like protein2/NAD-dependent deacetylase sirtuin-2” value was “+1.52 fold” and the “Fold Change, SIR2-like protein7/NAD-dependent deacetylase sirtuin-7” value was “+2.47 fold”. For the same compound, the “Fold Change, SRRM1 Serine/arginine repetitive matrix protein 1 (SR-related nuclear matrix protein 160 kDa) (SRm160)” value was “+3.13 fold”, the “Fold Change, TBCEL Tubulin-specific chaperone cofactor E-like protein (EL)” value was “No effect” and the “Fold Change, TTBK1 Tau-tubulin kinase 1” value was “No effect”. The “Fold Change, TTLL1 Tubulin polyglutamylase complex subunit 3 (PGs3)” value was “+2.07 fold”, the “Fold Change, TUBB2B Tubulin beta-2B chain” value was −3.31 fold and the “Laminins gene regulation (in words)” value was “up-regulate”.
